Tested on: Caco-2 cells
Test: apoA-I mediated 3H-cholesterol efflux from Caco-2 cells
Type: cell-based, human
Details: 24 h, 10 μg/ml apoA-I, mean and SEM of quadruplicate
Protocol: To assess the relevant biological activity of the LXR agonists, certain compounds were tested for their ability to increase cholesterol efflux from cultured human cells, as described by Sparrow et al., JBC volume 277, pages 10021–10027, Mar. 22, 2002. Caco-2 cells, which are of human origin, were obtained from ATCC and grown in Opti-MEM (Gibco #51985-034) containing 10% FCS, non-essential amino acids (Gibco #11140-050), and vitamins (Gibco # 11120-052). Caco-2 cells were plated at 100,000 cells/well in 48-well plates. After four days the cells had reached confluence, and were then labeled with ^3H-cholesterol by incubation for 24 hours in fresh growth media containing ^3H-cholesterol (10 μCi/ml). Following labeling with ^3H-cholesterol, cells were washed and incubated an additional 24 hours in serum-free media containing 1 mg/ml BSA, to allow for equilibration of ^3H-cholesterol with intracellular cholesterol. Cholesterol efflux was initiated by adding 10 μg/ml apoA-I, with or without compound, in serum-free medium. Compounds were added to cell culture medium from DMSO solutions, and control cells received an equivalent amount of DMSO, never exceeding 0.1%. After 24 hours, media were harvested and cells dissolved in 0.1 M NaOH. Media were briefly centrifuged to remove non-adherent cells, and then aliquots of both the supernatants and the dissolved cells were subjected to liquid scintillation spectrometry to determine radioactivity. Cholesterol efflux is expressed as a percentage, calculated as (^3H-cholesterol in medium/(^3H-cholesterol in medium+^3H-cholesterol in cells))×100.

Row | SMILES | % cholesterol efflux (compound concentration 1 nM) | % cholesterol efflux (compound concentration 10 nM) | % cholesterol efflux (compound concentration 100 nM) | % cholesterol efflux (compound concentration 1000 nM) | % cholesterol efflux (compound concentration 5000 nM)
1 | CCCc1c(OCCCN2C(=O)NC(C)(c3ccccc3)C2=O)ccc2c(C(F)(F)F)noc12 (racemic) [Example 25, rac-5-methyl-5-phenyl-3-(3-{[7-propyl-3-(trifluoromethyl)-1,2-benzisoxazol-6-yl]oxy}propyl)imidazolidine-2,4-dione] | 3.4 ± 0.3% | 3.5 ± 0.09% | 4.5 ± 0.09% | 4.6 ± 0.09% | 5.2 ± 0.2%
2 | CCCc1c(OCCCN2C(=O)CSC2=O)ccc2c(C(F)(F)F)noc12 [Example 16, 3-(3-{[7-propyl-3-(trifluoromethyl)-1,2-benzisoxazol-6-yl]oxy}propyl)thiazolidine-2,4-dione] | 3.2 ± 0.3% | 4.0 ± 0.2% | 8.8 ± 0.7% | 10.3 ± 0.3% | 6.6 ± 0.4%
